Results reported in PubChem BioAssay (NCI).
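Where inhibition never reached the appropriate level, the endpoint shown equals the highest concentration tested. Otherwise, values were interpolated linearly from a five-concentration, 48-hour dose response in 96-well plates. TGI marks complete inhibition of growth.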

Tests used:
Test in all cases: NCI-60 cell line screen, 48 h
COLO 205 colon = test system: COLO 205 colon
HCT-15 colon = test system: HCT-15 colon
MALME-3M melanoma = test system: MALME-3M melanoma
ACHN renal = test system: ACHN renal
BT-549 breast = test system: BT-549 breast
SF-268 CNS = test system: SF-268 CNS
HL-60(TB) leukemia = test system: HL-60(TB) leukemia
SW-620 colon = test system: SW-620 colon
NCI/ADR-RES ovarian = test system: NCI/ADR-RES ovarian
NCI-H226 lung = test system: NCI-H226 lung
MDA-MB-435 = test system: MDA-MB-435
LOX IMVI melanoma = test system: LOX IMVI melanoma
OVCAR-5 ovarian = test system: OVCAR-5 ovarian
SK-MEL-28 melanoma = test system: SK-MEL-28 melanoma
SN12C renal = test system: SN12C renal
DU-145 prostate = test system: DU-145 prostate
IGROV1 ovarian = test system: IGROV1 ovarian
T-47D breast = test system: T-47D breast
HOP-92 NSCLC = test system: HOP-92 NSCLC
M14 melanoma = test system: M14 melanoma
NCI-H522 lung = test system: NCI-H522 lung
OVCAR-3 ovarian = test system: OVCAR-3 ovarian
A549 NSCLC = test system: A549 NSCLC
SK-MEL-2 melanoma = test system: SK-MEL-2 melanoma
UACC-62 melanoma = test system: UACC-62 melanoma
SF-295 CNS = test system: SF-295 CNS
HT29 colon = test system: HT29 colon
OVCAR-4 ovarian = test system: OVCAR-4 ovarian
EKVX NSCLC = test system: EKVX NSCLC
HS 578T breast = test system: HS 578T breast
TK-10 renal = test system: TK-10 renal
786-0 renal = test system: 786-0 renal
HCT-116 colon = test system: HCT-116 colon
SF-539 CNS = test system: SF-539 CNS
NCI-H23 lung = test system: NCI-H23 lung
OVCAR-8 ovarian = test system: OVCAR-8 ovarian
A498 renal = test system: A498 renal
RPMI-8226 leukemia = test system: RPMI-8226 leukemia
U251 CNS = test system: U251 CNS
SNB-19 CNS = test system: SNB-19 CNS
HOP-62 NSCLC = test system: HOP-62 NSCLC
PC-3 prostate = test system: PC-3 prostate
SK-OV-3 ovarian = test system: SK-OV-3 ovarian
CAKI-1 renal = test system: CAKI-1 renal
SK-MEL-5 melanoma = test system: SK-MEL-5 melanoma
MDA-MB-231 breast = test system: MDA-MB-231 breast
SR leukemia = test system: SR leukemia
UACC-257 melanoma = test system: UACC-257 melanoma
HCC-2998 colon = test system: HCC-2998 colon
UO-31 renal = test system: UO-31 renal
MOLT-4 leukemia = test system: MOLT-4 leukemia
MCF7 breast = test system: MCF7 breast
KM12 colon = test system: KM12 colon
RXF 393 renal = test system: RXF 393 renal
MDA-N = test system: MDA-N
CCRF-CEM leukemia = test system: CCRF-CEM leukemia
NCI-H460 lung = test system: NCI-H460 lung

Measured: TGI

COc1c2c(cc3c1OCO3)[C@]13C=C[C@H](OC)C[C@H]1N(C2)CC3O (some centres not stated)
> 100 µM: all assays above
